Test results: patent US11559575B2, “Multi-epitopic peptide compounds and vaccines against leishmaniasis” (INSTITUT DE RECHERCHE POUR LE DEVELOPPEMENT, priority 2018, dated 2023)
“Also recorded” adds a separate entry of the source.

Columns and labels:
Format in all cases: binding, human
HLA alleles of class I = assay: Affinity of epitopes for HLA alleles of class I; details: for Affinity for the HLA alleles of class I: H2B-1 epitopes; for Affinity for the HLA alleles of class I / Affinity HLA alleles of class I: Table 1; for Concatenation affinity for HLA allele of class I: LmLRAB (IA, IB, IC) epitopes, Table 2; for Affinity HLA alleles of class I: H2B-II core epitopes
Excerpt: The multiepitopic peptide compounds (24 to 40-mer), having a high affinity with a maximized number of HLA molecules of class I and of class II, such as the affinities for the alleles HLA of class I and HLA of class II of the epitopes in the peptides of the sequences SEQ ID NO: 22, 23, 65, 66, 69, 73, 77, 96, 97, 137, 138, and 157, 185, have a high immunoprevalent potential corresponding to an optimal vaccine coverage, in particular for the populations concerned. The degree of coverage of the peptide compounds of the invention show a very high added value compared with the peptides of the prior art.

[1] = system: HLA supertypes of class I; assay: Affinity of epitopes for HLA supertypes of class I; details: for Affinity for the HLA supertypes of class I: H2B-1 epitopes; for Affinity for the HLA supertypes of class I / Affinity HLA supertype allele of class I: Table 1; for Affinity for HLA supertypes of class I: LmLRAB (IA, IB, IC) epitopes, Table 2; for Affinity HLA supertype allele of class I: H2B-II core epitopes
Excerpt: HLA molecules are highly polymorphous. This is because there exist more than 2500 HLA proteins of class I (HLA-I) and more than 1000 HLA proteins of class II (HLA-II). However, some of these HLA molecules, close in sequence and in spatial conformation, may have epitopes common to the T cells. The grouping of several thousands of HLA molecules is at the present time described in a little more than 20 or so categories, referred to as “HLA supertypes” having epitopes that are very well preserved for each supertype.

HLA alleles of class II = assay: Affinity of epitopes for HLA alleles of class II; details: Table 1; for Affinity for the HLA alleles of class II: H2B-1 epitopes; for Affinity HLA alleles of class II: H2B-II core epitopes

Sequence | Affinity for the HLA alleles of class I (HLA alleles of class I) | Affinity for the HLA supertypes of class I [1] | other results
AINAQMSMM (Leishmania major) [SEQ ID NO: 1] | HLA-B*15:01 | HLA-B*62 | 
ASFRSTEAI (Leishmania major) [SEQ ID NO: 75] |  |  | Concatenation affinity for HLA allele of class I (HLA alleles of class I): HLA-A*32:01,; also recorded: HLA-B*15:03,; also recorded: HLA-B*1517; Affinity for HLA supertypes of class I [1]: HLA-A*01,; also recorded: HLA-B*27,; also recorded: HLA-B*58
IKAINAQMSM (Leishmania major) [SEQ ID NO: 2] | HLA-B*57:01; also recorded: HLA-B*15:01, | HLA-B*62; also recorded: HLA-B*58, | 
KAINAQMSMM (Leishmania major) [SEQ ID NO: 4] | HLA-B*58:01,; also recorded: HLA-B*57:01,; also recorded: HLA-B*15:01 | HLA-B*58,; also recorded: HLA-B*62 | 
KTKQHLREM (Leishmania major) [SEQ ID NO: 68] |  |  | Concatenation affinity for HLA allele of class I (HLA alleles of class I): HLA-A*30:01,; also recorded: HLA-A*2602; Affinity for HLA supertypes of class I [1]: HLA-A*01/HLA-A*03,
MERICTEAA (Leishmania major) [SEQ ID NO: 6] | HLA-B*40:02,; also recorded: HLA-B*45 | HLA-B*44 | 
MMERICTEA (Leishmania major) [SEQ ID NO: 5] | HLA-A*02:03,; also recorded: HLA-A*02:01 | HLA-A*02 | 
MMERICTEAA (Leishmania major) [SEQ ID NO: 7] | HLA-A*02:03 | HLA-A*02 | 
MPHVDQSSI (Leishmania major) [SEQ ID NO: 74] |  |  | Concatenation affinity for HLA allele of class I (HLA alleles of class I): HLA-B*07:02,; also recorded: HLA-B*35:01,; also recorded: HLA-B*51:01,; also recorded: HLA-B*53:01,; also recorded: HLA-B*08:01; Affinity for HLA supertypes of class I [1]: HLA-B*07,; also recorded: HLA-B*08
MSHRTMKIK (Leishmania major) [SEQ ID NO: 8] | HLA-A*30:01,; also recorded: HLA-A*03:01,; also recorded: HLA-A*11:01 | HLA-A*01/HLA-A*03, | 
MSHRTMKIKA (Leishmania major) [SEQ ID NO: 9] | HLA-A*30:01 | HLA-A*01/HLA-A*03 | 
MSHRTMKSM (Leishmania major) [SEQ ID NO: 10] | HLA-B*57:01,; also recorded: HLA-A*30:01,; also recorded: HLA-B*15:01 | HLA-A*01/HLA-A*03,; also recorded: HLA-B*58,; also recorded: HLA-B*62 | 
MSMSHRTM (Leishmania major) [SEQ ID NO: 11] | HLA-B*08:01 | HLA-B*08 | 
MSMSHRTMK (Leishmania major) [SEQ ID NO: 12] | HLA-A*11:01,; also recorded: HLA-A*31:01,; also recorded: HLA-A*03:01,; also recorded: HLA-A*68:01,; also recorded: HLA-A*30:01,; also recorded: HLA-A*33:01 | HLA-A*01/HLA-; also recorded: A*03, HLA-A*03 | Affinity for the HLA alleles of class II (HLA alleles of class II): DRB1*03:01,; also recorded: DRB1*09:01,; also recorded: DRB1*11:01
MSMSHRTMKS (Leishmania major) [SEQ ID NO: 13] | HLA-A*03:01,; also recorded: HLA-A*11:01 | HLA-A*03 | 
NAQMSMMER (Leishmania major) [SEQ ID NO: 14] | HLA-A*68:01,; also recorded: HLA-A*33:01,; also recorded: HLA-A*31:01 | HLA-A*03 | 
NENNITGGL (MENNITGGL; Leishmania major) [SEQ ID NO: 67] |  |  | Concatenation affinity for HLA allele of class I (HLA alleles of class I): HLA-B*40:02,; also recorded: HLA-B*44:02,; also recorded: HLA-B*44:03; also recorded: HLA-B*18:01,; also recorded: HLA-B*40:01,; Affinity for HLA supertypes of class I [1]: HLA-B*44
NVYVGRSLK (Leishmania major) [SEQ ID NO: 47] |  |  | Affinity HLA alleles of class II (HLA alleles of class II): HLA-DRB5*01:01; Affinity HLA alleles of class I (HLA alleles of class I): HLA-A*03:01; Affinity HLA supertype allele of class I [1]: HLA-A*03
QMSMSHRTM (Leishmania major) [SEQ ID NO: 49] |  |  | Affinity HLA alleles of class II (HLA alleles of class II): HLA-DRB1*01:01,; also recorded: HLA-DRB4*01:01; Affinity HLA alleles of class I (HLA alleles of class I): HLA-B*15:01; Affinity HLA supertype allele of class I [1]: HLA-B*62
RFAQGEHDI (Leishmania major) [SEQ ID NO: 70] |  |  | Concatenation affinity for HLA allele of class I (HLA alleles of class I): HLA-A*2403; Affinity for HLA supertypes of class I [1]: HLA-A*24
RLPENAFVI (Leishmania major) [SEQ ID NO: 71] |  |  | Concatenation affinity for HLA allele of class I (HLA alleles of class I): HLA-A*32:01,; also recorded: HLA-A*02:06,; also recorded: HLA-A*02:11,; also recorded: HLA-A*02:12,; also recorded: HLA-A*02:16,; also recorded: HLA-A*02:19; Affinity for HLA supertypes of class I [1]: HLA-A*01,; also recorded: HLA-A*02
SLKAINAQM (Leishmania major) [SEQ ID NO: 50] |  |  | Affinity HLA alleles of class II (HLA alleles of class II): HLA-DRB1*04:01,; also recorded: HLA-DRB1*08:02,; also recorded: HLA-DRB1*09:01,; also recorded: HLA-DRB1*11:01,; also recorded: HLA-DRB1*13:02,; also recorded: HLA-DRB4*01:01; Affinity HLA alleles of class I (HLA alleles of class I): HLA-B*15:01; Affinity HLA supertype allele of class I [1]: HLA-B*62
SMSHRTMK (Leishmania major) [SEQ ID NO: 15] | HLA-A*03:01 | HLA-A*03 | 
SMSHRTMKI (Leishmania major) [SEQ ID NO: 16] | HLA-A*02:03,; also recorded: HLA-A*32:01,; also recorded: HLA-A*02:01 | HLA-A*02 | Affinity for the HLA alleles of class II (HLA alleles of class II): DRB1*07:01,; also recorded: DRB1*13:02
SMSHRTMKIK (Leishmania major) [SEQ ID NO: 17] | HLA-A*03:01,; also recorded: HLA-A*11:01,; also recorded: HLA-A*30:01 | HLA-A*01/HLA-; also recorded: A*03, HLA-A*03 | 
SMSHRTMKS (Leishmania major) [SEQ ID NO: 18] | HLA-A*02:03 | HLA-A*02 | 
SSIMVVANK (Leishmania major) [SEQ ID NO: 76] |  |  | Concatenation affinity for HLA allele of class I (HLA alleles of class I): HLA-A*30:01,; also recorded: HLA-A*03:01,; also recorded: HLA-A*11:01,; also recorded: HLA-A*31:01,; also recorded: HLA-A*68:01; Affinity for HLA supertypes of class I [1]: HLA-A*01/HLA-A*03,
TMKSMSHRT (Leishmania major) [SEQ ID NO: 20] | HLA-A*02:03 | HLA-A*02 | 
TQGSSKAGF (Leishmania major) [SEQ ID NO: 72] |  |  | Concatenation affinity for HLA allele of class I (HLA alleles of class I): HLA-B*15:01,; also recorded: HLA-B*15:02; Affinity for HLA supertypes of class I [1]: HLA-B*27,; also recorded: HLA-B*62
